Measurements published in patent US7297790B2, “Anhydrous mirtazapine crystals and process for preparing the same” (Sumitomo Chemical Company, Limited, priority 1999, dated 2007).

Assay: Hygroscopic degree of crystals stored at constant temperature and humidity (petri dish, weight gain)
Assay type: physicochemical
Settings: 75% relative humidity, chamber temperature 25° C., after 500 hours; compared with Comparative Example 3
Procedure: Next, the mirtazapine crystals obtained in Example 7 and Comparative Example 3 were placed on a petri dish, and the petri dish was placed in a constant temperature and humidity of 75% relative humidity and a chamber temperature of 25° C., and the change in the hygroscopic degree of the crystals was evaluated. Incidentally, the hygroscopic degree is calculated by the following equation: [Hygroscopic Degree (% by weight)]=[(Weight (g) of Crystals After Treatment)−(Weight (g) of Crystals Before Treatment)]÷[Weight (g) of Crystals Before Treatment]×100

hygroscopic degree with the passage of time (FIG. 2), in words: very low
Structure (SMILES): CN1CCN2c3ncccc3Cc3ccccc3C2C1 (stereo not shown) [Example 7, anhydrous mirtazapine]
